In patent US20210032257A1, “(E)-1-(4-(DIMETHYLAMINO)BUT-2-ENOYL)PYRROLIDIN-3-YL 4-((3-ISOPROPYL-5-METHYLPYRAZOLO[1,5-A]PYRIMIDIN-7-YL)AMINO)PIPERIDINE-1-CARBOXYLATE FOR INHIBITING CDK7” (Eli Lilly and Company, priority 2017, published 2021) one finds IC50 data, which are given here for one compound.

Structures are written as SMILES.

Assay [1] deals with phospho-carboxyl terminal domain (Ser5) in HCT116 cells. Briefly: p-CTD (S5) cell based Acumen assay. To be noted: Homo sapiens, HCT-116, 4 hours, read-out: Relative IC50 for pCTD Ser5. The procedure: HCT116 cells (ATCC CCL-247) are cultured in McCoy's 5A Medium Modified media supplemented with 10% FBS, 1% NaPyr and 1% Pen/Strep and plated (prior to becoming 70% confluent) in 96-well flat-bottom plates at a density of 5,000 cells per well in 100 μL volume. The cells are incubated overnight in a cell culture incubator (5% CO2, 95% Relative Humidity (RH) and 37° C.) and allowed to attach to the plate. The following morning, the cells are dosed with compounds. Compound inhibitors are solubilized at 60 μM in culture medium containing 0.6% DMSO. Subsequently compound serial dilutions (1:3) are prepared over a 60 μM to 0.003 μM range. […]
The following day cells are washed three times with PBS (100 μL/well) and incubated with 50 μL/well of secondary antibody (1:2000 dilution, Goat anti-rabbit IgM ALEXA FLUOR™ 488) in PBS for 1 hour at room temperature. […] Plates are analyzed on Acumen on FL2 (mean intensity), and FL3 (total intensity). Fluorescence plates are scanned with ACUMEN EXPLORER™ [Laser-scanning fluorescence microplate cytometer manufactured by TTP LABTECH LTD] to measure anti-phospho-carboxyl terminal domain at Serine 5 (pCTD). […] The IC50 is determined by curve fitting to a four parameter logistic for each output using GENE DATA™.

The subject of the next assay is cMyc in HCT116 cells. Nature of the assay: cMyc cell based Acumen assay. To be noted: Homo sapiens, HCT-116, 4 hours, read-out: Relative IC50 for cMyc.
Assay [2] deals with phospho-carboxyl terminal domain (Ser2) in HCT116 cells. Nature of the assay: p-CTD (S2) cell based Acumen assay. To be noted: Homo sapiens, HCT-116, 4 hours, read-out: relative IC50 for phosphoCTD (S2). Here is the method:
HCT116 cells (ATCC CCL-247) are cultured in McCoy's 5A Medium Modified media supplemented with 10% FBS, 1% NaPyr and 1% Pen/Strep and plated (prior to becoming 70% confluent) in 96-well flat-bottom plates at a density of 5,000 cells per well in 100 μL volume. The cells are then incubated overnight in a cell culture incubator (5% CO2, 95% Relative Humidity (RH) and 37° C.) and allowed to attach to the plate. The following morning the cells are dosed with compounds. Compound inhibitors are first solubilized at 60 μM in culture medium containing 0.6% DMSO. Subsequently compound serial dilutions (1:3) are prepared over a […] to […] range. […]
The following day cells are washed three times with PBS (100 μL/well) and incubated with 50 μL/well of secondary antibody (1:2000 dilution, Goat anti-rabbit IgM ALEXA FLUOR™ 488) in PBS for 1 hour at RT. […] Plates are analyzed on Acumen on FL2 (mean intensity), and FL3 (total intensity). Fluorescence plates are scanned with ACUMEN EXPLORER™ [Laser-scanning fluorescence microplate cytometer manufactured by TTP LABTECH LTD] to measure anti-phospho-carboxyl terminal domain at Serine 2 (pCTD). […]
The IC50 is determined by curve fitting to a four parameter logistic for each output using GENE DATA™.

The target of another assay is CDK7/CyclinH/Mat1 (Homo sapiens, UniProt P50613). Briefly: Biochemical assay for inhibition of CDK7/CyclinH/MAT1 (radiolabel filter binding).
For another assay, the target named is CDK9/cyclinT1 (Homo sapiens, UniProt P50750). Briefly: Assay for inhibition of CDK9/CyclinT1 kinase activity (radiolabel filter binding).
CDK9/cyclinT1, sequence (P50750 whole entry): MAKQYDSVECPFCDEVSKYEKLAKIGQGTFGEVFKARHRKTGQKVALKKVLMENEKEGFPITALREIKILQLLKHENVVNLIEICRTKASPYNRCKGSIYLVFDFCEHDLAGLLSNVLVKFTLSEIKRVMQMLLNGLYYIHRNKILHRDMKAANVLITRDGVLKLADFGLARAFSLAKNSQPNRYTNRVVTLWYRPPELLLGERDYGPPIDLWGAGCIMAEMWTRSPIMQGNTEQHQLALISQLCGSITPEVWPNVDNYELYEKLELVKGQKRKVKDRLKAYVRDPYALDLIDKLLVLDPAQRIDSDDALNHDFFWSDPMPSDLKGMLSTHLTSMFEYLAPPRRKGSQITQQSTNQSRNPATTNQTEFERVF
CDK9/cyclinT1, sequence (O60563 whole entry partner): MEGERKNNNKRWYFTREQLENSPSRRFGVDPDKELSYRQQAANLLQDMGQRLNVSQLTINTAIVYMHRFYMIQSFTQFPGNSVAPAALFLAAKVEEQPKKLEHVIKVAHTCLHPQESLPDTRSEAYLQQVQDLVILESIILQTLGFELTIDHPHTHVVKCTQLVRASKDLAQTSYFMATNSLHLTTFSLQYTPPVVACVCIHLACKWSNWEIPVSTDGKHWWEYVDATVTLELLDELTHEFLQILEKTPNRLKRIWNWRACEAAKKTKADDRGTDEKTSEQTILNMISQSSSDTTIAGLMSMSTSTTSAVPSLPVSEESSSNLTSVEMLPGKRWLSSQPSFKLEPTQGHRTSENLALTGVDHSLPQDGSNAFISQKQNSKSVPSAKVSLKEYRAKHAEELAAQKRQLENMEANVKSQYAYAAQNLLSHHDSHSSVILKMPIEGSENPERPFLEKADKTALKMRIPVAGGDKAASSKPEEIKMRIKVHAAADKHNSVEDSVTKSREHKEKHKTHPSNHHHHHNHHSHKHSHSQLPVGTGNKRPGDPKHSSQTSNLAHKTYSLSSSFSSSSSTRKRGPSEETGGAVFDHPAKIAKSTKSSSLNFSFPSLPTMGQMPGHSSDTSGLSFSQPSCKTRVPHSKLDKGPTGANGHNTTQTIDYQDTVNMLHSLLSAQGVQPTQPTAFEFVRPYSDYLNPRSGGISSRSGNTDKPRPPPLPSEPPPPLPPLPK

CDK7/CyclinH/Mat1, sequence (P50613 whole entry): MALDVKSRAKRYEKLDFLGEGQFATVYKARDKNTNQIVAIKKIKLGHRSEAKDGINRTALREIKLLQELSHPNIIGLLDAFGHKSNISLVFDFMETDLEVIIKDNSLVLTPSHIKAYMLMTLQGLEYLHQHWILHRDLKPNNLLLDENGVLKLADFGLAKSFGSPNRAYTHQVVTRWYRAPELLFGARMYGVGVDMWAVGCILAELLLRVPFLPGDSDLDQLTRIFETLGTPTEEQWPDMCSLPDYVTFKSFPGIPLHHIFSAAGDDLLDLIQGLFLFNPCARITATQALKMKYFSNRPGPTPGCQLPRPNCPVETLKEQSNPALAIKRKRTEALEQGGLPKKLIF
CDK7/CyclinH/Mat1, sequence (P51946 whole entry partner): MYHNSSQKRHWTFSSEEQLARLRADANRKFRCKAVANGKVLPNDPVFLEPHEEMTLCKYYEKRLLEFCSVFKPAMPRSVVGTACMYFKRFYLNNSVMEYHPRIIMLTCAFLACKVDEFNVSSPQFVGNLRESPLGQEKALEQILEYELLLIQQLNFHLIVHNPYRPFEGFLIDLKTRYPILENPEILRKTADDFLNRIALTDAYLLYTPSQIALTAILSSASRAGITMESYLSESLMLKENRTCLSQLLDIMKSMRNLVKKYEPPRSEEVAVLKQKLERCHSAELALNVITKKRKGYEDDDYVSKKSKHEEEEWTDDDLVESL
CDK7/CyclinH/Mat1, sequence (P51948 whole entry partner): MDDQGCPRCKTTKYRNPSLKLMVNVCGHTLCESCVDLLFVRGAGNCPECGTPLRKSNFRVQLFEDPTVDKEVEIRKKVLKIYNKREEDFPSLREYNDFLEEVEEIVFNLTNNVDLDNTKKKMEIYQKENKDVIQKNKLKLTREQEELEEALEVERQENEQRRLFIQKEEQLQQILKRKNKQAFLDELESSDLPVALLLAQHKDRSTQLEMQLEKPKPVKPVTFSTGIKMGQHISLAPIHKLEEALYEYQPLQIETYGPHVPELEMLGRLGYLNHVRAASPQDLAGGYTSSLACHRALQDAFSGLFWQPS
Method for CDK7/CyclinH/Mat1: The purpose of this assay is to measure the ability of a compound of the invention to inhibit CDK7/CyclinH/Mat1 complex kinase activity.
The IC50 activity of the inhibitor is determined using radiolabel filter binding (FB) assays using the purified human recombinant enzyme in the presence of ATP//[3^3P]ATP and peptide substrate. The ATP concentrations chosen are at or near the enzyme Km for ATP.
Reactions are carried out in 96 well polystyrene plates in a final volume of 25 μL per well. 5 μL of test compound in 20% DMSO, 10 μL of substrate solution (ATP/33PATP and CDK7/9 tide) and 10 μL of enzyme solution are mixed. […] The enzyme solution is prepared for a final concentration of 1 nM CDK7/CyclinH/Mat1 enzyme [Proqinase 0366-0360-4 Lot 002)] diluted in kinase buffer. Test compounds are serially diluted 1:3 in 20% DMSO to create a 10 point curve at a starting concentration of 20 μM. 20% DMSO buffer alone without test compound is employed as high control (full activity in the absence of any inhibitor), 500 mM EDTA is used to determine the level of background in the absence of enzyme activity (low control). After mixing 5 μL of compounds with 10 μL of enzyme solution the plate is incubated for 0 or 180 minutes at 22° C. After that time the reaction is initiated by the addition of 10 μL substrate solution and incubated for 50 minutes at 22° C. The reaction is terminated by the addition of 80 μL of cold 10% ortophosphoric solution. The Filter Plates (opaque, non-sterile filter plates) are prewashed with 10 μL of 10% orthophosphoric solution to each well. 100 μL of the mixture are transferred to a phosphocellulose filter and incubated at room temperature for 45 minutes. Filter plates are washed with 200 μL 0.5% orthophosphoric acid 3 times on a filter plate processor. Incorporation of 33Pi (counting of “cpm”) is determined by adding 80 μL of MICROSCINT™ to each well and read on a counter after an hour. Data is processed through a [sequence] […] ® tool. Data are analyzed using a 4-parameter nonlinear logistic equation (four-parameter logistic concentration-response curve): Y=bot+[(top-bot)/1+(x/IC50)slope] where Y=% inhibition, X=concentration yielding y % inhibition, Bottom=minimum value of y attained by curve, Top=maximum value of y attained by curve and Slope=steepness of curve at IC50. % Inh=[(median Max−x/median Max−median Min)]·100
IC50: concentration of compound that reduces a given response (ligand binding, enzyme response) by 50%.
Method for CDK9/cyclinT1: The IC50 determination for CDK7 and CDK9 are determined as follows.
The IC50 activity of the inhibitor is determined using radiolabel filter binding (FB) assays using the purified human recombinant enzyme in the presence of ATP and peptide substrate. The ATP concentrations chosen are at or near the enzyme Km for ATP. Reactions are carried out in 96 well polystyrene plates in a final volume of 25 μL per well. 5 μL of test compound in 20% DMSO, 10 μL of substrate solution (ATP//[^33P]ATP and CDK7/9 tide) and 10 μL of enzyme solution are mixed. […] The enzyme solution is prepared for a final concentration of 7.5 nM CDK9/cyclinT1 enzyme [Proqinase 0371-0345-1 (Lot 004)] diluted in kinase buffer. Test compounds are serially diluted 1:3 in 20% DMSO to create a 10 point curve at a starting concentration of 2 μM. 20% DMSO buffer alone without test compound is employed as high control (full activity in the absence of any inhibitor), 500 mM EDTA is used to determine the level of background in the absence of enzyme activity (low control). After mixing 5 μL of compounds with 10 μL of enzyme solution the plate is incubated for 0 or 180 minutes at 22° C. After that time the reaction is initiated by the addition of 10 μL substrate solution and incubated for 60 minutes at 22° C. […] 80 μL of MICROSCINT™ is added to each well and read on a scintillation counter after an hour. […]

Regarding `Cc1cc(NC2CCN(C(=O)O[C@@H]3CCN(C(=O)/C=C/CN(C)C)C3)CC2)n2ncc(C(C)C)c2n1` [Example 3, [(3R)-1-[(E)-4-(dimethylamino)but-2-enoyl]pyrrolidin-3-yl] 4-[(3-isopropyl-5-methyl-pyrazolo[1,5-a]pyrimidin-7-yl)amino]piperidine-1-carboxylate], the IC50 in assay [1] came out at 198 nM; in the assay with cMyc in HCT116 cells it was 57.3 nM; in assay [2] it was 3520 nM; at CDK7/CyclinH/Mat1 (IC50 in CDK7, 3 hours of preincubation of CDK7 enzyme), 5.06 nM; on CDK7/CyclinH/Mat1 (IC50 in CDK7, without preincubation) it was 48.7 nM; at CDK9/cyclinT1 it was 2450 nM.
